{"source": "patent US20070128265A1", "about": "“Regulation of cell proliferation and differentiation using topically applied peptides” (priority 2000, published 2007)", "key": {"mammalian cells": {"system": "mammalian cells", "conditions": "U.S. Pat. Nos. 5,527,772, 5,840,690 and 6,066,618; agonists or antagonists of PTH and PTHrP; cited from earlier work"}, "psoriatic lesion": {"system": "psoriatic lesion", "test": "One patient with chronic psoriasis: topical PTH (1-34) followed by calcipotriene cream", "assay_type": "in vivo", "source_text": "One patient with chronic psoriasis received topically PTH (1-34) for two months. […] The patient returned two weeks later and, on the lesion treated with PTH (1-34) and the placebo lesion, received topically calcipotriene cream. […] Therefore, the combination therapy of PTH (1-34) followed by calcipotriene or other activated vitamin D compounds can be an effective therapeutic approach for treating psoriasis."}, "hair follicles": {"system": "hair follicles", "test": "Macroscopic evaluation of hair cycle progression in depilated C57 BL/6 mice", "assay_type": "in vivo", "conditions": "for hair growth progression (progression of hair follicles into anagen), macroscopic evaluation: 10 μg in 30 μl Novasome topically daily for seven days", "protocol": "(§1) C57 BL/6 were purchased from Jackson Labs and were in their telogen state of hair development. The animals were depilated as previously described (1). Groups of six animals received daily a topical application of either 10 μg of PTH (1-34) in 30 μl of Novasome or their depilatated backs, 10 μg of PTH (7-34)/30 μl of Novasome, or 30 μl of Novasome. The animals were dosed daily for seven days. Macroscopic evaluation and tritiated thymidine and bromouridine analysis was made on day seven as previously described (1, 2, 3, 4)."}, "hair follicle cells": {"system": "hair follicle cells", "test": "BRDU staining of hair follicle cells in depilated C57 BL/6 mice", "assay_type": "in vivo", "conditions": "10 μg in 30 μl Novasome topically daily for seven days", "protocol": "as §1"}, "epidermis": {"system": "epidermis", "test": "Tritiated thymidine incorporation into epidermal DNA in SKH-1 hairless mice", "assay_type": "in vivo", "protocol": "SKH-1 hairless mice received topically daily for 60 days either 10 μg of PTH (1-34) formulated in Novasome A, PTH (7-34) formulated in Novasome A, or Novasome A without any PTH analog to serve as the control group. The animals received ^3H-tritiated thymidine for the evaluation of epidermal proliferation as previously described."}, "psoriatic lesions": {"system": "psoriatic lesions", "test": "Double blind placebo controlled trial in chronic psoriasis, clinical improvement of lesions", "assay_type": "in vivo, patients", "conditions": "20 μg/0.1 ml in Novasome topically, two months", "source_text": "Nine patients with chronic psoriasis were enrolled in a double blind placebo controlled trial. […] The percentage of clinical improvement of scaling, erythema, and induration for the lesion treated with placebo was 17.2, 15, and 30%, respectively. For the lesion treated with PTH (1-34), there was a marked improvement in scaling of 30.9%, erythema 34%, and induration 52%, respectively."}, "[1]": {"system": "epidermis of psoriatic lesions", "test": "Skin biopsies of psoriatic lesions: hemotoxilin and eosin staining, immunohistochemistry for PCNA and transglutaminase", "assay_type": "in vivo, patients", "conditions": "treated lesions compared to placebo treated lesions, two months"}}}
{"compound": "PTHrP (1-34): parathyroid related peptide fragment (1-34), agonist of PTH and PTHrP", "values": [{"measurement": "effect on proliferation and differentiation of mammalian cells", "setting": "mammalian cells", "result": "inhibit proliferation and enhance differentiation of mammalian cells"}]}
{"compound": "PTHrP (7-34): parathyroid related peptide fragment (7-34), antagonist of PTH and PTHrP", "values": [{"measurement": "effect on proliferation and differentiation of mammalian cells", "setting": "mammalian cells", "result": "enhance the proliferation of mammalian cells"}]}
{"compound": "C=C1/C(=C\\C=C2/CCC[C@]3(C)[C@@H]([C@H](C)/C=C/[C@@H](O)C4CC4)CC[C@@H]23)C[C@@H](O)C[C@@H]1O", "note": "[calcipotriene, reference compound]", "values": [{"measurement": "response of psoriatic lesion after two months of topical calcipotriene cream", "setting": "psoriatic lesion; lesion pretreated two months with PTH (1-34) or with Novasome placebo", "result": "no significant improvement"}]}
{"compound": "PTH (1-34): parathyroid hormone fragment (1-34), agonist peptide; tested topically formulated in Novasome A liposomes", "values": [{"measurement": "hair growth progression (progression of hair follicles into anagen), macroscopic evaluation", "setting": "hair follicles", "result": "decrease in hair growth progression"}, {"measurement": "BRDU staining of the hair follicles", "setting": "hair follicle cells", "result": "demonstrated a decrease"}, {"measurement": "decrease in DNA synthesis (proliferation) compared to the control group", "setting": "epidermis; 10 μg topically daily for 60 days in Novasome A, 3H-thymidine", "result": 25, "unit": "%"}, {"measurement": "percentage of clinical improvement of erythema", "setting": "psoriatic lesions", "result": 34, "unit": "%"}, {"measurement": "percentage of clinical improvement of induration", "setting": "psoriatic lesions", "result": 52, "unit": "%"}, {"measurement": "percentage of clinical improvement of scaling", "setting": "psoriatic lesions", "result": 30.9, "unit": "%"}, {"measurement": "PCNA staining in skin biopsies", "setting": "[1]", "result": "restoration of the PCNA staining in the basal layer"}, {"measurement": "proliferation of the epidermis in skin biopsies", "setting": "[1]", "result": "marked decrease in the proliferation of the epidermis"}, {"measurement": "transglutaminase staining in skin biopsies", "setting": "[1]", "result": "restoration of transglutaminase staining in the upper granular layer"}, {"measurement": "response of psoriatic lesion", "setting": "psoriatic lesion; topical PTH (1-34) for two months", "result": "minimal response"}, {"measurement": "effect on proliferation and differentiation of mammalian cells", "setting": "mammalian cells", "result": "inhibit proliferation and enhance differentiation of mammalian cells"}]}
{"compound": "PTH (3-34): parathyroid hormone fragment (3-34), agonist of PTH and PTHrP (SEIQLMHNLGKHLNSMERVEWLRKKLQDVHNF; Parathyroid hormone; UniProt P01270 34-65, looked up, fragment)", "values": [{"measurement": "effect on proliferation and differentiation of mammalian cells", "setting": "mammalian cells", "result": "inhibit proliferation and enhance differentiation of mammalian cells"}]}
{"compound": "PTH (7-34): parathyroid hormone fragment (7-34), antagonist peptide; tested topically formulated in Novasome A liposomes (LMHNLGKHLNSMERVEWLRKKLQDVHNF; Parathyroid hormone Novasome A liposome formulation; UniProt P01270 38-65, looked up, fragment)", "values": [{"measurement": "hair growth progression (progression of hair follicles into anagen), macroscopic evaluation", "setting": "hair follicles", "result": "increase in the progression of the hair follicles into their proliferative anagen state"}, {"measurement": "increase in the anagen area", "setting": "hair follicles; 10 μg topically daily for seven days, formulated in Novasome A", "result": 155, "unit": "%"}, {"measurement": "BRDU staining of the hair follicles", "setting": "hair follicle cells", "result": "increase in BRDU staining of the hair follicle"}, {"measurement": "enhancement in DNA synthesis (proliferation) compared to the control group", "setting": "epidermis; 10 μg topically daily for 60 days in Novasome, 3H-thymidine in the epidermis", "result": "more than two fold enhancement"}, {"measurement": "effect on proliferation and differentiation of mammalian cells", "setting": "mammalian cells", "result": "enhance the proliferation of mammalian cells"}]}
